In publication PMC8092876, “A Leucyl-tRNA Synthetase Inhibitor with Broad-Spectrum Antimycobacterial Activity” (Antimicrobial Agents and Chemotherapy, 2021):
Converted amounts (≈) assume the structure as drawn. Where two headings read alike, the source gives them in different places.

Experiments:
[1] = test system: M. tuberculosis H37Rv ATCC 27294; test: MIC assay in 96-well plate format; type: cell-based; details: Mycobacterium tuberculosis, 168 h
M. avium 11 = test: MIC assay in 96-well plate format; type: cell-based, M. avium subsp. hominissuis; details: Mycobacterium avium, 96 h; M. avium 11, 7H9, 4 days; read-out: MIC
[2] = test system: M. abscessus subsp. massiliense CCUG 48898T; test: MIC assay in 96-well plate format; type: cell-based; details: Mycobacteroides abscessus, culture collection reference strain
[3] = test system: M. abscessus subsp. bolletii CCUG 50184T; test: MIC assay in 96-well plate format; type: cell-based; details: Mycobacteroides abscessus, culture collection reference strain
[4] = test system: M. abscessus subsp. abscessus M9; test: MIC assay in 96-well plate format; type: cell-based; details: Mycobacteroides abscessus; M. abscessus subsp. abscessus M9, clinical isolate
[5] = test system: M. abscessus subsp. abscessus M337; test: MIC assay in 96-well plate format; type: cell-based; details: Mycobacteroides abscessus; M. abscessus subsp. abscessus M337, clinical isolate
[6] = test system: M. abscessus subsp. abscessus M422; test: MIC assay in 96-well plate format; type: cell-based; details: Mycobacteroides abscessus; M. abscessus subsp. abscessus M422, clinical isolate
[7] = test system: M. abscessus subsp. bolletii M506; test: MIC assay in 96-well plate format; type: cell-based; details: Mycobacteroides abscessus; M. abscessus subsp. bolletii M506, clinical isolate
M. chimaera CCUG 50989T = test: MIC assay in 96-well plate format; type: cell-based; details: CCUG50989T, culture collection reference strain
[8] = test system: M. abscessus Bamboo RM3 (LeuS V417M); test: microbe, parasite or virus in culture; type: cell-based; details: RM3, batch 1, LeuS V417M
[9] = test system: M. abscessus Bamboo RM4 (LeuS T327R); test: microbe, parasite or virus in culture; type: cell-based; details: Mycobacteroides abscessus
[10] = Kinetic aqueous solubility assay (CLND); type: physicochemical; details: aqueous buffer, kinetic from dmso stock, pH 7.4 phosphate-buffered saline
Experimental: The aqueous solubility of test compounds was measured using an in-house method utilizing quantification via chemiluminescent nitrogen detection (CLND): 5 μl of 10 mM DMSO stock solution was diluted to 100 μl with pH 7.4 phosphate-buffered saline, equilibrated for 1 h at room temperature, and filtered through Millipore Multiscreen HTS-PCF filter plates (MSSL BPC). The eluent is quantified by a suitably calibrated flow injection chemiluminescent nitrogen detection (CLND or CAD). This assay has a dynamic range between the lower detection limit of 1 and 500 μM, governed by the protocol’s 1:20 dilution into pH 7.4 phosphate buffer solution from nominal 10 mM DMSO stock.

ChromlogD assay = type: physicochemical; details: reversed phase HPLC column (Gemini NX C18), pH 7.4
Experimental: The Chromatographic Hydrophobicity Index (CHI) values are measured using reversed phase high-performance liquid chromatography (HPLC) column (50 by 2 mm […] Gemini NX C18, Phenomenex, UK) with fast acetonitrile gradient at starting mobile phase of pHs 2, 7.4, and 10.5. CHI values are derived directly from the gradient retention times by using a calibration line obtained for standard compounds. The CHI value approximates to the volume percent organic concentration when the compound elutes. CHI is linearly transformed into ChromlogD by least-square fitting of experimental CHI values to calculated ClogP values for over 20,000 research compounds using the following formula: ChromlogD = (0.0857 × CHI) − 2.00. The average error of the assay is ±3 CHI unit or ±0.25 ChromlogD.

[11] = Mouse pharmacokinetics, intravenous administration; type: in vivo
Experimental: (§1) For pharmacokinetic studies, CD-1 male mice (22 to 25 g) were used for intravenous route and C57BL/6 female mice (18 to 20 g) were used for oral route. All animal studies were ethically reviewed and carried out in accordance with European Directive 2010/63/EU and the GSK policy on the care, welfare, and treatment of animals.
(§2) EC/11770 was administered by intravenous route at 1 mg/kg single dose in saline and by oral gavage at 1 mg/kg and 10 mg/kg single doses in 1% methyl cellulose (1% MC). Aliquots of 20 μl of blood were taken from the lateral tail vein by puncture from each mouse (n = 3 per route and dose) at 5, 15, and 30 min 1, 2, 4, 6, 8, and 24 h postdose for intravenous route and at 15, 30, and 45 min 1, 2, 4, 6, 8, and 24 h postdose for oral route. The blood aliquots were mixed with 40 μl of water and stored at −80°C prior to analysis. The samples were processed by protein precipitation: aliquots of 20 μl were mixed with acetonitrile/methanol (80:20 vol/vol) and then filtered in 0.45 μm well-plates (hydrophobic polytetrafluorethylene [PTFE], Millipore). The filtrates were analyzed by UPLC-MS/MS for the establishment of compound concentration. The ultraperformance liquid chromatography (UPLC)-MS/MS system included a UPLC Acquity (Waters) and an API4000 mass spec. (AB Sciex). A volume of 7.5 μl of sample was injected into the system, with an UPLC solvent gradient of 2 min and with a positive multiple reaction monitoring (MRM) mass detection mode.
(§3) Pharmacokinetic analysis was performed by noncompartmental data analysis (NCA) with Phoenix WinNonlin 6.3 (Pharsight, Certara L.P), and supplementary analysis was performed with GraphPad Prism 6 (GraphPad Software, Inc.).

[12] = Mouse pharmacokinetics, oral administration; type: in vivo; details: for AUC: female, C57BL/6, whole blood
Experimental: as §1, §2, §3

[13] = TB efficacy studies; stated as known, no reference given; cited from earlier work
[14] = mouse, oral 10 mg/kg, average (SD)

Work on CC(C)(O)COc1ccc(Br)c2c1B(O)O[C@@H]2CN [EC/11770] yielded an MIC [1] of 0.56 µM (≈ 0.185 µg/mL), an MIC (M. avium 11) of 4 µM (≈ 1.32 µg/mL) and an MIC [2] of 0.71 µM (≈ 0.234 µg/mL). It also gave an MIC [3] of 1.3 µM (≈ 0.429 µg/mL), an MIC [4] of 0.49 µM (≈ 0.162 µg/mL) and an MIC [5] of 0.5 µM (≈ 0.165 µg/mL). For the same compound, the MIC [6] was 0.33 µM (≈ 0.109 µg/mL), the MIC [7] was 0.48 µM (≈ 0.158 µg/mL) and the MIC (M. chimaera CCUG 50989T) was 1.7 µM (≈ 0.561 µg/mL). It also gave an MIC ([8]; Mycobacteroides abscessus) of 60 to 75 µM (≈ 19.8 to 24.7 µg/mL), an MIC [8] of 62 µM (≈ 20.5 µg/mL) and an MIC [9] greater than 100 µM. For the same compound, the solubility at 1 h [10] was 349 µM (≈ 115 µg/mL), the chromatographic logD (ChromlogD assay) was 0.97 and the half-life ([11]; male, CD-1, whole blood, mouse, intravenous 1 mg/kg, average (SD)) was 5.3 h. The Vd ([11]; male, CD-1, whole blood, mouse, intravenous 1 mg/kg, average (SD), read-out: Vss) was 2.4 L/kg, the AUC(0-inf) ([11]; male, CD-1, mouse, intravenous 1 mg/kg, whole blood, average (SD)) was 3340 ng·h/mL and the “in vivo clearance as share of liver blood flow in mice” value ([11]; mouse, intravenous 1 mg/kg, liver blood flow 90 to 126 ml/min/kg) was “approximately 5%”. The clearance ([11]; whole blood, mouse (CD-1 male), intravenous 1 mg/kg in saline, average (SD), read-out: In vivo CL) was 5 mL/min/kg, the AUC ([12]; mouse, oral 1 mg/kg, average (SD), read-out: AUC0–24_1 mg/kg) was 3560 ng·h/mL and the AUC ([12]; mouse, oral 10 mg/kg, average (SD), read-out: AUC0–24_10 mg/kg) was 40500 ng·h/mL. The Cmax_1 mg/kg ([12]; mouse (C57BL/6 female), oral 1 mg/kg, average (SD)) was 341 (51) ng/ml, the “%F_1 mg/kg” value ([12]; mouse, oral 1 mg/kg) was 100% and the “DNAUC0–24_1 mg/kg” value ([12]; mouse, oral 1 mg/kg, average (SD)) was 3,556 (179) ng h/ml per mg/kg. The Tmax_1 mg/kg ([12]; mouse, oral 1 mg/kg, range of values) was 1.0−2.0 h, the “%F_10 mg/kg” value ([12]; mouse, oral 10 mg/kg) was 100% and the “time above M. abscessus biofilm MIC” value ([12]; mouse, oral 10 mg/kg) was “approximately 60%”. For the same compound, the “time above MIC in M. abscessus planktonic cultures” value ([12]; mouse, oral 10 mg/kg) was 100%, the Cmax_10 mg/kg [12, 14] was 4,393 (1,260) ng/ml and the “DNAUC0–24_10 mg/kg” value [12, 14] was 4,053 (908) ng h/ml per mg/kg. The Tmax_10 mg/kg ([12]; mouse, oral 10 mg/kg, range of values) was 0.75−2.0 h and the tolerated dose [13] was “up to 100 mg/kg”.
